Consider one compound from PMC5543065, “Mechanistic and structural basis for activation of cardiac myosin force production by omecamtiv mecarbil” (Nature Communications, 2017).

This assay addresses T1, bovine β-cardiac myosin S1 fragment (cardiac myosin, MYH7) (Bos taurus, UniProt Q9BE39).
T1 construct: Subfragment-1 (S1), AA 1–840; with MYL3 (Uniprot P85100)
Kind of assay: ITC; crystal structure at […] Å; SAXS. The assay is classed as binding. The settings on record: read-out: Nucleotide state / ADP-VO4 (n = 5).

T1 sequence (Q9BE39 1-840): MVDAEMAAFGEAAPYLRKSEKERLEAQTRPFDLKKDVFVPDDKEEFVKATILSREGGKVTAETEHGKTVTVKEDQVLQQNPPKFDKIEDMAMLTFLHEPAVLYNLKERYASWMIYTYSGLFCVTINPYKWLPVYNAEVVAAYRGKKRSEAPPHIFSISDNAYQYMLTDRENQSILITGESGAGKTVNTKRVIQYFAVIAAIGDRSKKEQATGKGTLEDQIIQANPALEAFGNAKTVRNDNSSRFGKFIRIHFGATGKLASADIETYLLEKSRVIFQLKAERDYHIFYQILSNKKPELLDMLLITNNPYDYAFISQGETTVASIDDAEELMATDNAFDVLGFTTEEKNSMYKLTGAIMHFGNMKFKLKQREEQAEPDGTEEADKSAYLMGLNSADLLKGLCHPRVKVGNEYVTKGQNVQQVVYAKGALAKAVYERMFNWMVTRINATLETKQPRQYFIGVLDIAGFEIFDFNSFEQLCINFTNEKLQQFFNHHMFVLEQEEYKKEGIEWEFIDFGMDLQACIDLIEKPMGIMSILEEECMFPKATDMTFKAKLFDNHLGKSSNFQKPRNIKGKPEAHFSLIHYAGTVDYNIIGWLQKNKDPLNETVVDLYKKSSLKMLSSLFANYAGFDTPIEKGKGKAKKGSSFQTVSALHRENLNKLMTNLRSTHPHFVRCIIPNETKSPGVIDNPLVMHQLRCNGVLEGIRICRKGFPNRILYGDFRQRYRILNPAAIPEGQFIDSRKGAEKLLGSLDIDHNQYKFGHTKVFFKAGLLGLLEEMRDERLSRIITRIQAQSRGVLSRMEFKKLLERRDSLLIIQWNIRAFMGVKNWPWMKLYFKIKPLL
T1 sequence (P85100 2-199 partner): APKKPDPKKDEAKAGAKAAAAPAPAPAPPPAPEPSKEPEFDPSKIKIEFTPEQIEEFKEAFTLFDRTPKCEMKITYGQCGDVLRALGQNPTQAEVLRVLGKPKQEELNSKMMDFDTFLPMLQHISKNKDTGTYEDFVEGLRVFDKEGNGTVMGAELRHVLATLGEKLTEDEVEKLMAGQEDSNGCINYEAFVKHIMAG

`COC(=O)N1CCN(Cc2cccc(NC(=O)Nc3ccc(C)nc3)c2F)CC1` [OM, Omecamtiv mecarbil]: the Kd worked out at 290 ± 40 nM.
